Test results as given in PubChem BioAssay (NCI).
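The compound was tested at five concentrations on cells cultured in 96-well plates, with a 48-hour exposure period. TGI: total growth inhibition.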

What was measured:
Test in all cases: NCI-60 cell line screen, 48 h
ACHN renal = test system: ACHN renal
BT-549 breast = test system: BT-549 breast
CAKI-1 renal = test system: CAKI-1 renal
COLO 205 colon = test system: COLO 205 colon
HCT-116 colon = test system: HCT-116 colon
HCT-15 colon = test system: HCT-15 colon
HS 578T breast = test system: HS 578T breast
HT29 colon = test system: HT29 colon
K-562 leukemia = test system: K-562 leukemia
MCF7 breast = test system: MCF7 breast
OVCAR-3 ovarian = test system: OVCAR-3 ovarian
RXF 393 renal = test system: RXF 393 renal
SF-539 CNS = test system: SF-539 CNS
SK-MEL-2 melanoma = test system: SK-MEL-2 melanoma
SNB-19 CNS = test system: SNB-19 CNS
SNB-75 CNS = test system: SNB-75 CNS
SW-620 colon = test system: SW-620 colon
T-47D breast = test system: T-47D breast
UACC-257 melanoma = test system: UACC-257 melanoma
U251 CNS = test system: U251 CNS

SMILES | TGI (ACHN renal) [µM] | TGI (BT-549 breast) [µM] | TGI (CAKI-1 renal) [µM] | TGI (COLO 205 colon) [µM] | TGI (HCT-116 colon) [µM] | TGI (HCT-15 colon) [µM] | TGI (HS 578T breast) [µM] | TGI (HT29 colon) [µM] | TGI (K-562 leukemia) [µM] | TGI (MCF7 breast) [µM] | TGI (OVCAR-3 ovarian) [µM] | TGI (RXF 393 renal) [µM] | TGI (SF-539 CNS) [µM] | TGI (SK-MEL-2 melanoma) [µM] | TGI (SNB-19 CNS) [µM] | TGI (SNB-75 CNS) [µM] | TGI (SW-620 colon) [µM] | TGI (T-47D breast) [µM] | TGI (UACC-257 melanoma) [µM] | TGI (U251 CNS) [µM]
CCC(=O)Nc1ccc(NCC(=O)Nc2ccc(OC)cc2)cc1 | > 100 | 51.6 | > 100 | > 100 | 80.3 | > 100 | > 100 | > 100 | > 100 | 33.3 | 78.6 | 35.2 | 38.6 | 38.5 | 31.3 | 34.3 | > 100 | 70.1 | 64.2 | 
O=C(C1OC1c1cccc([N+](=O)[O-])c1)C12CC3CC(CC(C3)C1)C2 (stereo unspecified) | 23 | 12.6 | 24.5 | 23.4 | 4.69 | 14.7 | 14.3 | 13 | 13.2 | 12.8 | 12.5 | 16.8 | 22.6 | 28.6 | 20.5 | 20 | 8.44 | 26.3 | 25.4 | 9.64
Cc1ccc(SCC(OCn2cnc3c(Cl)nc(N)nc32)[C@H](C)F)cc1 (stereo partly specified) | > 100 | > 100 | > 100 | > 100 | > 100 | > 100 | > 100 | > 100 |  | > 100 | > 100 |  | > 100 | > 100 | > 100 | > 100 | > 100 | > 100 | > 100 | > 100
O=c1[nH]c(=O)n([C@@H]2O[C@H](CO)[C@@H](O)[C@@H]2F)cc1I | > 100 | > 100 | > 100 | > 100 | > 100 | > 100 | > 100 | > 100 | > 100 | > 100 | > 100 | > 100 | > 100 |  | > 100 | > 100 | > 100 | > 100 | > 100 | > 100
C#C[C@]1(O)CC[C@H]2[C@@H]3CCC4=C/C(=N/OC(=O)c5cccc6c(=O)c7ccccc7[nH]c56)CCC4[C@H]3CC[C@@]21CC (stereo partly specified) | > 100 | 87.8 | > 85 | > 79.9 | > 100 | > 47.7 | > 100 | > 50.7 | > 82.3 | > 93.5 | > 61.1 | 12.6 |  | > 100 | > 100 | > 100 | > 63.5 | > 75.9 | > 88.1 | > 100
Cc1cc(N(CCC#N)CCC#N)ccc1/C(N=Nc1ccc([N+](=O)[O-])cc1)=N\NC(=O)c1ccccc1 | > 100 | > 100 | > 100 | > 100 | > 100 | > 100 | 64.5 | 71.4 | > 100 | > 100 | > 100 | > 100 | 92.9 | > 100 | > 100 | > 100 |  | 97.1 | > 100 | > 100
Cc1ccc(S(=O)(=O)NC(=O)NC(CCC(N)=O)C(=O)O)cc1 (stereo unspecified) | > 100 | > 100 |  | > 100 | > 100 | > 100 | > 100 | > 100 | > 100 | > 100 |  | > 100 | > 100 | > 100 | > 100 | > 100 | > 100 | > 100 | > 100 | > 100
O=C(NC1(C(=O)O)CCCC1)c1ccccc1 | > 100 | > 100 | > 100 | > 100 | > 100 | > 100 | > 100 | > 100 | > 100 | > 100 | > 100 | > 100 | > 100 | > 100 | > 100 |  | > 100 | > 100 | > 100 | > 100
Cc1cc(C)nc(NS(=O)(=O)c2ccc(NC(=O)c3cc([N+](=O)[O-])cc([N+](=O)[O-])c3)cc2)n1 |  | > 100 | > 100 | 45.7 | > 100 | > 100 | > 100 | > 100 | > 100 | > 100 | 98.4 | > 100 | > 100 | > 100 | > 100 | > 100 | > 100 | > 100 | > 100 | > 100
C=CCn1c(-c2ccc(Cl)cc2)csc1=Nc1ccccc1OC | > 100 | > 100 | > 100 | > 100 | > 100 | > 100 | > 100 |  | 19.4 | > 100 | > 100 | > 100 | > 100 | > 100 | > 100 | > 94.3 | > 100 | 8.5 | 29.7 | > 100
CC(=O)n1nc(-c2ccc3ccccc3c2)nc1C | > 100 | > 100 | > 100 | > 100 | > 100 | > 100 | > 100 | > 100 | > 100 | > 100 | > 100 | > 100 | > 100 | > 100 |  | > 100 | > 100 | > 100 | > 100 | 
[N-]=[N+]=Nc1ccc2c(c1)Sc1ccccc1N2CCCCN1CCN(C(=O)CCNC(=O)Cc2ccc(C(=O)c3ccccc3)cc2)CC1 | > 60.5 | 10.6 | > 100 | 8.92 | 18.9 | 8.52 | > 100 | 4.67 |  | 5.78 | 18.3 | > 100 | 17.2 | 8.97 | > 56.4 | > 24.4 | > 39.3 | 28.7 | 9.96 | > 24.6
